Experimental findings from US9839642B2, “Beta-tetrazolyl-propionic acids as metallo-beta-lactamase inhibitors” (priority 2014, dated 2017) are described below.

Experiment [1] concerns the target IMP-1 (Serratia marcescens, UniProt P52699). Description: Enzyme activity: determination of IC50, fluorescence assay with CCF2-FA substrate. It is filed as biochemical. To be noted: IMP-1 enzyme 2 pM, CCF2-FA 1.25 μM, 2 hours at 25° C.; read-out: IMP1 IC50. The gist of the method: (§1)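 Enzyme at 1 pM (NDM-1), 2 pM (IMP-1) or 30 pM (VIM-1) was incubated with inhibitor (20 μM to 0.00063 μM) and 1.25 μM CCF2-FA in 100 mM KH2PO4 pH 7, 0.005% Tween-20, 10 μM ZnSO4 for 2 hours at 25° C. Fluorescence was read at ex 405/em 460 nm; IC50 from 4-parameter fit.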

The target of experiment [2] is VIM-1 (Pseudomonas aeruginosa, UniProt A0A0F7KYQ8). The experiment is described as above. It is filed as biochemical. The conditions noted are these: VIM-1 enzyme 30 pM, CCF2-FA 1.25 μM, 2 hours at 25° C.; read-out: VIM1 IC50. The gist of the method: as §1
The target in experiment [3] is NDM-1 (Klebsiella pneumoniae, UniProt C7C422). The description is as above. It is filed as biochemical. To be noted: NDM-1 enzyme 1 pM, CCF2-FA 1.25 μM, 2 hours at 25° C.; read-out: NDM1 IC50. The gist of the method:
as §1

In experiment [4] the test system is Escherichia coli expressing NDM-1 (CLB30016). Briefly: Antibiotic potentiation activity: synergistic concentration (MITC95) with imipenem, growth by OD600. It is filed as cell-based. To be noted: E. coli CLB30016 (NDM-1), 95% inhibition of growth. The essentials:
(§2)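 Colonies from overnight agar plates (35 °C) were suspended in saline and diluted 1:100 into 1.1× CAMHB. Inhibitor (final 200 μM to 0.195 μM) was combined with imipenem at 1 or 4 μg/ml, incubated 22–24 h at 35 °C, and absorbance read; MITC95 is the lowest inhibitor concentration giving 95% growth inhibition.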

The subject of experiment [5] is Serratia marcescens expressing IMP-1 (CL5741). Described as above. To be noted: S. marcescens CL5741 (IMP-1), 95% inhibition of growth. It is filed as cell-based. The gist of the method: as §2
Experiment [6] relates to Klebsiella pneumoniae expressing VIM-1 (IHMA599644). The experiment is described as above. It is filed as cell-based. The conditions noted are these: K. pneumoniae IHMA599644 (VIM-1), 95% inhibition of growth. The essentials:
as §2

Sequence of NDM-1 (C7C422 29-270, looked up, species assumed): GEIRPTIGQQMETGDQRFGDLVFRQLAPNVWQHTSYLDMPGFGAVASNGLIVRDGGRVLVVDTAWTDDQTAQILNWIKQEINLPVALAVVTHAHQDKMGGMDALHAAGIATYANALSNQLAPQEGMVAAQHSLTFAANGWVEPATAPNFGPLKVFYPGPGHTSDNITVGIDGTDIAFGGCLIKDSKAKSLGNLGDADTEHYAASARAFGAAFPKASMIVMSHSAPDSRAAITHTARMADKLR
Sequence of IMP-1 (P52699 19-246, looked up, species assumed): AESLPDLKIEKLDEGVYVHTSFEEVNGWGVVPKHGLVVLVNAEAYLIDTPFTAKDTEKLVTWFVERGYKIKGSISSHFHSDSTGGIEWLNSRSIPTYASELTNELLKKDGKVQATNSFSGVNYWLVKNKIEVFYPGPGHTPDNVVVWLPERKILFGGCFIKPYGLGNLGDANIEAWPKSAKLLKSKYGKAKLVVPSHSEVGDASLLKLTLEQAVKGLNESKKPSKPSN

What is called IC50 is the concentration that gives 50% inhibition. For the molecule `CCC[C@H](C(=O)O)[C@H](Cc1cccc(-c2cnc(N)c(F)c2)c1)c1nn[nH]n1` [Example 356, (2S)-2-[(1S)-2-[3-(6-amino-5-fluoropyridin-3-yl)phenyl]-1-(2H-tetrazol-5-yl)ethyl]pentanoic acid], the results for the IC50 in experiment [1], in experiment [2] and in experiment [3] were 170 nM, 1.5 nM and 6.2 nM, respectively. Further, the “NDM1 EC30016 MITC95” value in experiment [4] amounted to 25 µM. Further, in experiment [5], the “IMP1 SM5741 MITC95” value came to 4.7 µM. The “VIM1 KP599644 MITC95” value in experiment [6] is 18.8 µM.

Take `CCC[C@H](C(=O)O)[C@H](Cc1cccc(-c2ccccc2CN2CCCCC2)c1)c1nn[nH]n1` [Example 357, (2S)-2-[(1S)-2-[2′-(piperidin-1-ylmethyl)biphenyl-3-yl]-1-(2H-tetrazol-5-yl)ethyl]pentanoic acid]: the IC50 was determined as 2100 nM in experiment [1], 63 nM in experiment [2] and 170 nM in experiment [3]. In addition, the “NDM1 EC30016 MITC95” value in experiment [4] was determined as 150 µM. The “IMP1 SM5741 MITC95” value in experiment [5] was determined as 38 µM. In addition, in experiment [6], the “VIM1 KP599644 MITC95” value was found to be 150 µM.

Take `CCC[C@H](C(=O)O)[C@H](Cc1cccc(-c2cccc(CN3CCCCC3)c2)c1)c1nn[nH]n1` [Example 358, (2S)-2-[(1S)-2-[3′-(piperidin-1-ylmethyl)biphenyl-3-yl]-1-(2H-tetrazol-5-yl)ethyl]pentanoic acid]: the IC50 worked out at 1000 nM in experiment [1], 6.2 nM in experiment [2] and 47 nM in experiment [3]. The “NDM1 EC30016 MITC95” value in experiment [4] turned out to be 38 µM. For the same molecule, the “IMP1 SM5741 MITC95” value in experiment [5] turned out to be 12.5 µM. Also, in experiment [6], the “VIM1 KP599644 MITC95” value was 62 µM.

Turning to `CCC[C@H](C(=O)O)[C@H](Cc1cccc(-c2cccc(CN)c2)c1)c1nn[nH]n1` [Example 359, (2S)-2-[(1S)-2-[3′-(aminomethyl)biphen-yl-3-yl]-1-(2H-tetrazol-5-yl)ethyl]pentanoic acid], the IC50 came out at 750 nM in experiment [1], 2.5 nM in experiment [2] and 60 nM in experiment [3]. Further, the “NDM1 EC30016 MITC95” value in experiment [4] amounted to 9.4 µM. Besides, in experiment [5], the “IMP1 SM5741 MITC95” value came out at 12.5 µM. In addition, the “VIM1 KP599644 MITC95” value in experiment [6] was found to be 6.2 µM.

Take `CCC[C@H](C(=O)O)[C@H](Cc1cccc(N2CCCC(O)C2)c1)c1nn[nH]n1` (stereo partly drawn) [Example 360, (2S)-2-[(1S)-2-[3-(3-hydroxypiperidin-1-yl)phenyl]-1-(2H-tetrazol-5-yl)ethyl]pentanoic acid]: the values for the IC50 in experiment [1], in experiment [2] and in experiment [3] were 510 nM, 13 nM and 47 nM, respectively. Besides, in experiment [4], the “NDM1 EC30016 MITC95” value amounted to 25 µM. For the same molecule, in experiment [5], the “IMP1 SM5741 MITC95” value amounted to 18.8 µM. In addition, the “VIM1 KP599644 MITC95” value in experiment [6] worked out at 150 µM.

On to `CCC[C@H](C(=O)O)[C@H](Cc1cccc(N(C)CCN(C)C)c1)c1nn[nH]n1` [Example 361, (2S)-2-[(1S)-2-(3-{[2-(dimethylamino)ethyl] (methyl)amino}phenyl)-1-(2H-tetrazol-5-yl)ethyl]pentanoic acid], for which the IC50 in experiment [1] turned out to be 8700 nM; in experiment [2], 29 nM; in experiment [3], 390 nM. Further, in experiment [4], the “NDM1 EC30016 MITC95” value is 38 µM. Moreover, the “IMP1 SM5741 MITC95” value in experiment [5] amounted to 150 µM. Further, the “VIM1 KP599644 MITC95” value in experiment [6] came out at 25 µM.

Regarding `CCC[C@H](C(=O)O)[C@H](Cc1cccc(N2CCN(C)CC2)c1)c1nn[nH]n1` [Example 362, (2S)-2-[(1S)-2-[3-(4-methylpiperazin-1-yl)phenyl]-1-(2H-tetrazol-5-yl)ethyl]pentanoic acid], the IC50 in experiment [1] turned out to be 11000 nM; in experiment [2] it was 10 nM; in experiment [3] it was 640 nM. Besides, the “NDM1 EC30016 MITC95” value in experiment [4] came to 25 µM. In experiment [5], the “IMP1 SM5741 MITC95” value was 150 µM. Also, the “VIM1 KP599644 MITC95” value in experiment [6] was 18.8 µM.

As to `CCC[C@H](C(=O)O)[C@H](Cc1cccc(N2CCN(C(C)=O)CC2)c1)c1nn[nH]n1` [Example 363, (2S)-2-[(1S)-2-[3-(4-acetylpiperazin-1-yl)phenyl]-1-(2H-tetrazol-5-yl)ethyl]pentanoic acid], the IC50 in experiment [1] came out at 810 nM; in experiment [2] it was 20 nM; in experiment [3], 150 nM. Besides, the “NDM1 EC30016 MITC95” value in experiment [4] worked out at 100 µM. Moreover, the “IMP1 SM5741 MITC95” value in experiment [5] came to 25 µM. For the same molecule, the “VIM1 KP599644 MITC95” value in experiment [6] was found to be 100 µM.

`CCC[C@H](C(=O)O)[C@H](Cc1cccc(N2CC[C@@H](N)C2)c1)c1nn[nH]n1` [Example 364, (2S)-2-[(1S)-2-{3-[(3R)-3-aminopyrrolidin-1-yl]phenyl}-1-(2H-tetrazol-5-yl)ethyl]pentanoic acid]: the values for the 50% inhibitory concentration (IC50) in experiment [1], in experiment [2] and in experiment [3] were 1600 nM, 2.4 nM and 110 nM, respectively. Also, the “NDM1 EC30016 MITC95” value in experiment [4] was 9.4 µM. Besides, in experiment [5], the “IMP1 SM5741 MITC95” value is 38 µM. In experiment [6], the “VIM1 KP599644 MITC95” value is 12.5 µM.

Regarding `CCC[C@H](C(=O)O)[C@H](Cc1cccc(N2CCOCC2)c1)c1nn[nH]n1` [Example 365, (2S)-2-[(1S)-2-(3-morpholin-4-ylphenyl)-1-(2H-tetrazol-5-yl)ethyl]pentanoic acid], the IC50 in experiment [1] was determined as 1500 nM; in experiment [2], 20 nM; in experiment [3] it was 82 nM. The “NDM1 EC30016 MITC95” value in experiment [4] stood at 38 µM. In experiment [5], the “IMP1 SM5741 MITC95” value amounted to 38 µM. In experiment [6], the “VIM1 KP599644 MITC95” value was determined as 50 µM.

For `CCC[C@H](C(=O)O)[C@H](Cc1cccc(N2CCC[C@H](N)C2)c1)c1nn[nH]n1` [Example 366, (2S)-2-[(1S)-2-{3-[(3S)-3-aminopiperidin-1-yl]phenyl}-1-(2H-tetrazol-5-yl)ethyl]pentanoic acid], the IC50 amounted to 8600 nM in experiment [1], 13 nM in experiment [2] and 870 nM in experiment [3]. The “NDM1 EC30016 MITC95” value in experiment [4] worked out at 50 µM. Moreover, in experiment [5], the “IMP1 SM5741 MITC95” value stood at 150 µM. Also, the “VIM1 KP599644 MITC95” value in experiment [6] was 25 µM.

Turning to `CCC[C@H](C(=O)O)[C@H](Cc1cccc(N2CCNC(=O)C2)c1)c1nn[nH]n1` [Example 367, (2S)-2-[(1S)-2-[3-(3-oxopiperazin-1-yl)phenyl]-1-(2H-tetrazol-5-yl)ethyl]pentanoic acid], the IC50 in experiment [1] is greater than 20000 nM; in experiment [2], 260 nM; in experiment [3], 1400 nM. Moreover, the “NDM1 EC30016 MITC95” value in experiment [4] was greater than 200 µM. Further, in experiment [5], the “IMP1 SM5741 MITC95” value was greater than 200 µM. In addition, the “VIM1 KP599644 MITC95” value in experiment [6] was greater than 200 µM.

In the case of `CCC[C@H](C(=O)O)[C@H](Cc1cccc(N2CCCCC2)c1)c1nn[nH]n1` [Example 368, (2S)-2-[(1S)-2-(3-piperidin-1-ylphenyl)-1-(2H-tetrazol-5-yl)ethyl]pentanoic acid], the IC50 in experiment [1] was 740 nM; in experiment [2], 9.7 nM; in experiment [3], 46 nM. Moreover, the “NDM1 EC30016 MITC95” value in experiment [4] worked out at 25 µM. The “IMP1 SM5741 MITC95” value in experiment [5] stood at 37.5 µM. Moreover, the “VIM1 KP599644 MITC95” value in experiment [6] worked out at 50 µM.

Take `CCC[C@H](C(=O)O)[C@H](Cc1cccc(N2CC[C@H](N)C2)c1)c1nn[nH]n1` [Example 369, (2S)-2-[(1S)-2-{3-[(3S)-3-aminopyrrolidin-1-yl]phenyl}-1-(2H-tetrazol-5-yl)ethyl]pentanoic acid]: the IC50 came out at 2300 nM in experiment [1], 3.2 nM in experiment [2] and 150 nM in experiment [3]. Besides, the “NDM1 EC30016 MITC95” value in experiment [4] worked out at 12.5 µM. In addition, the “IMP1 SM5741 MITC95” value in experiment [5] worked out at 50 µM. For the same molecule, the “VIM1 KP599644 MITC95” value in experiment [6] came to 12.5 µM.

As to `CCC[C@H](C(=O)O)[C@H](Cc1cccc(N2CCC[C@@H](N)C2)c1)c1nn[nH]n1` [Example 370, (2S)-2-[(1S)-2-{3-[(3R)-3-aminopiperidin-1-yl]phenyl}-1-(2H-tetrazol-5-yl)ethyl]pentanoic acid], the IC50 in experiment [1] stood at 9000 nM; in experiment [2] it was 6.3 nM; in experiment [3], 870 nM. Besides, in experiment [4], the “NDM1 EC30016 MITC95” value worked out at 44 µM. The “IMP1 SM5741 MITC95” value in experiment [5] amounted to 175 µM. Besides, in experiment [6], the “VIM1 KP599644 MITC95” value stood at 41 µM.

With `CC(C)C[C@H](C(=O)O)[C@H](Cc1ccc(Oc2ccccc2C2CCCN2)nc1)c1nn[nH]n1` (stereo partly drawn) [Example 374, (2S)-4-methyl-2-[(1S)-2-[6-(2-pyrrolidin-2-ylphenoxy)pyridin-3-yl]-1-(2H-tetrazol-5-yl)ethyl]pentanoic acid], the IC50 was found to be 90 nM in experiment [1], 3 nM in experiment [2] and 12 nM in experiment [3]. Moreover, the “NDM1 EC30016 MITC95” value in experiment [4] was determined as 9.4 µM. Also, in experiment [5], the “IMP1 SM5741 MITC95” value worked out at 9.4 µM. The “VIM1 KP599644 MITC95” value in experiment [6] is 62 µM.

On to `CC(C)C[C@H](C(=O)O)[C@H](Cc1ccc(Oc2ccccc2C2CCCN2)nc1)c1nn[nH]n1` (stereo partly drawn) [Example 376, (2S)-4-methyl-2-[(1S)-2-[6-(2-pyrrolidin-2-ylphenoxy)pyridin-3-yl]-1-(2H-tetrazol-5-yl)ethyl]pentanoic acid], for which the IC50 in experiment [1] was 660 nM; in experiment [2], 4.6 nM; in experiment [3] it was 77 nM. For the same molecule, the “NDM1 EC30016 MITC95” value in experiment [4] was determined as 25 µM. For the same molecule, in experiment [5], the “IMP1 SM5741 MITC95” value was found to be 25 µM. Moreover, in experiment [6], the “VIM1 KP599644 MITC95” value is 50 µM.
